In PubChem BioAssay (NCI) one finds TGI data, which are given here for eleven compounds.

As usually defined, the TGI is the concentration at which net growth stops. Read a high TGI as lower sensitivity of the cells.

The structures appear in SMILES notation.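 Protocol summary: plate cells (96-well), add compound at 5 concentrations, incubate 48 h, interpolate endpoints linearly. TGI denotes the concentration required for complete inhibition of growth.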

What all share (assay): DTP human tumour cell line panel, 48 h
The subject of assay [1] is A549 NSCLC.
Assay [2] relates to ACHN renal.
The subject of assay [3] is BT-549 breast.
The subject of assay [4] is EKVX NSCLC.
Assay [5] deals with HT29 colon.
The subject of assay [6] is M14 melanoma.
Assay [7] relates to MCF7 breast.
Assay [8] has as its system MDA-MB-231 breast.
Assay [9] relates to MOLT-4 leukemia.
Assay [10] concerns NCI-H522 lung.
The test system of assay [11] is SF-539 CNS.
The test system of assay [12] is SK-MEL-5 melanoma.
The test system of assay [13] is TK-10 renal.
The subject of assay [14] is HS 578T breast.

In the case of `CC1(C)O[C@H]2[C@@H]3N=C(c4ccccc4)O[C@@H]3C=C[C@H]2O1`, the total growth inhibition concentration (TGI) in [1], in assay [2], in [3], in [4], in [5] and in [6] was greater than 100 µM in each case. Further, the total growth inhibition concentration (TGI) in [7] was greater than 100 µM; in assay [8] it was greater than 100 µM; in [9], greater than 100 µM; in [10], 17.4 µM; in assay [11], greater than 100 µM; in assay [12] it was greater than 100 µM. In assay [13], this compound registered a total growth inhibition concentration (TGI) greater than 100 µM.

Regarding `O=C1N(CN2CCOCC2)CN(CN2CCOCC2)C(=O)N1Cc1ccccc1`, the total growth inhibition concentration (TGI) was greater than 100 µM in assay [1]; greater than 100 µM in [2]; 57 µM in assay [3]; greater than 100 µM in assay [4]; 39.9 µM in [5]; 33.3 µM in [6]. The TGI was 82.6 µM in assay [7]; 69.6 µM in [8]; 39.3 µM in [9]; 29 µM in [10]; 38.9 µM in [11]; 44.2 µM in [12]. In [13], the TGI was greater than 100 µM.

With `COc1cc(C2c3[nH]c4ccc(F)cc4c3C[C@H]3COC(=O)N23)cc(OC)c1O` (stereo partly specified), the concentration for total growth inhibition (TGI) in assay [1] is 28.3 µM; in [2], 26.4 µM; in assay [3], greater than 100 µM; in assay [4], 92.3 µM; in assay [14], 13 µM; in [5], 26.8 µM. For the same compound, the TGI was 43.8 µM in assay [6]; greater than 100 µM in assay [7]; 47.4 µM in assay [8]; greater than 100 µM in assay [9]; 35.5 µM in [10]; 11.4 µM in [11]. The concentration for total growth inhibition (TGI) in assay [12] was 34.7 µM.

In the case of `COc1ccccc1-c1nc2ccccc2c(=O)[nH]1`, the TGI in [1], in assay [2], in [3], in assay [4], in assay [14] and in [6] was greater than 100 µM throughout. For the same compound, the TGI in [7], in assay [8], in assay [9] and in assay [12] was greater than 100 µM throughout.

With `CCn1c(-c2ccccc2)nc2c1C(=O)c1ccccc1C2=O`, the TGI in assay [1] is greater than 100 µM; in assay [3], 60.6 µM; in [14], greater than 100 µM; in [5] it was 30.3 µM; in assay [6], 54 µM; in assay [7], greater than 100 µM. The TGI is 91.1 µM in assay [9]; 43 µM in assay [10]; greater than 100 µM in assay [11]; 23.2 µM in [12]; 85.9 µM in [13].

On to `COc1cc(S(=O)(=O)Nc2ccc(-c3csc(N4C(=O)C(C)SC4c4ccccc4O)n3)cc2)ccc1Cl` (stereo unspecified), for which the TGI in [1] was greater than 100 µM; in assay [2], greater than 100 µM; in [3], greater than 100 µM; in [4], greater than 100 µM; in assay [14] it was 90.4 µM; in assay [5], greater than 100 µM. In addition, the total growth inhibition concentration (TGI) in assay [6] is greater than 100 µM; in assay [7], greater than 100 µM; in assay [9] it was greater than 100 µM; in [10], 37 µM; in [11] it was greater than 100 µM; in assay [12] it was greater than 100 µM.

Take `O=C(N/N=C/C=C/c1ccc([N+](=O)[O-])o1)c1ccc(Br)s1`: the TGI in assay [1] is greater than 100 µM; in [2], 38.7 µM; in assay [3], 51.8 µM; in [4], 95.9 µM; in assay [14], 31.7 µM; in assay [5], 34.2 µM. Besides, the TGI is 42.1 µM in assay [6]; greater than 100 µM in assay [7]; 64.9 µM in assay [8]; greater than 100 µM in assay [9]; 74.5 µM in assay [11]; 46.1 µM in assay [12]. Moreover, in [13], the concentration for total growth inhibition (TGI) came out at 46.5 µM.

On to `COc1ccc(N2CCN(Cc3c(C(C)=O)[n+](=O)c4ccccc4n3[O-])CC2)cc1`, for which the TGI was greater than 100 µM in assay [1]; greater than 100 µM in assay [2]; 53.3 µM in assay [3]; greater than 100 µM in assay [4]; greater than 100 µM in [14]; greater than 100 µM in assay [5]. Further, the TGI in assay [6] was greater than 100 µM; in [7], greater than 100 µM; in assay [8], greater than 100 µM; in assay [10], greater than 100 µM; in [12] it was greater than 100 µM; in [13] it was 67.5 µM.

As to `CC1(C)CCCCCC(C)(CCCCCCCCCCCO)C1=O` (stereo unspecified), the total growth inhibition concentration (TGI) in [1] stood at 29 µM; in assay [2], 25.7 µM; in assay [3], 33.8 µM; in [4], 32 µM; in assay [14], 32.4 µM; in assay [5] it was 24.1 µM. In addition, the TGI in [7] came out at 29.8 µM; in assay [8], 29.9 µM; in [9] it was 46.3 µM; in assay [10], 31.1 µM; in assay [11], 30.9 µM; in assay [12], 31.3 µM. In assay [13], this compound registered a TGI of 24.5 µM.

Take `CC1C2(C)OC(=N)C(C#N)(C(c3ccco3)O2)C1(C#N)C#N` (stereo unspecified): the TGI was greater than 100 µM in assay [1]; greater than 100 µM in assay [2]; greater than 100 µM in assay [3]; greater than 100 µM in assay [4]; 80.8 µM in assay [14]; greater than 100 µM in assay [5]. In addition, the TGI in [6] was 35.9 µM; in assay [7], 51.4 µM; in [8], 39.5 µM; in [9], greater than 100 µM; in [11] it was 35.9 µM; in assay [12], 28.1 µM. For the same compound, the TGI in assay [13] was greater than 100 µM.

As to `COc1cc(CNC(=O)[C@H](Cc2ccc(O)cn2)NC(C)=O)cc(OC)c1`, the TGI in assay [1], in assay [2], in assay [3], in assay [4], in assay [14] and in assay [5] was greater than 100 µM in each case. The TGI in assay [6], in [7], in assay [9], in assay [10], in [11] and in [12] was greater than 100 µM in each case. In assay [13], this compound returned a TGI greater than 100 µM.
